Test results reported in US5614504A, “Method of making inosine monophosphate derivatives and immunopotentiating uses thereof” (The University of South Florida, priority 1995, dated 1997).
Where two headings read alike, the source gives them in different places.

Assays:
[1] = test system: CD4+ lymphocytes; test: PHA response of CD4+ enriched human lymphocytes; type: cell-based; settings: MIMP 1-200 μg/ml, 3 donors, p <0.01
Description: Human CD4+ and CD8+ lymphocyte subsets were obtained from normal controls using commercial panning techniques (Applied Immune Sciences, Santa Clara, Calif.).
Human peripheral blood lymphocytes are on average approximately 80% T lymphocytes and 20% B lymphocytes and of the T lymphocytes, 2/3 are of the CD4+ helper/inducer phenotype and 1/3 are the CD8+ suppressor/cytotoxic phenotype. Enrichment of CD4+ T cells or CD8+ T cells can be achieved through reduction of the other phenotype (>98%) removal using adherence to monoclonal antibody-coated flasks (panning).

[2] = test system: human peripheral blood lymphocytes (HPBL); test: Reversal of suppression of HPBL PHA response by HIV gp41 peptide, interferon α and PGE2; type: cell-based; settings: for effect on gp41 peptide-suppressed PHA proliferation: MIMP 0.1-100 μg/ml
Description: A 17 amino acid sequence from the gp41 portion of the gp16O peptide of the human immunodeficiency virus (HIV) was synthesized and kindly provided to us by M. Strand (Johns Hopkins University, Baltimore, Md.) (Reugg and Strand, 1990).
Prostaglandin E2 was obtained from Sigma Chemicals (St. Louis, Mo.) and recombinant interferon-α (IFNα, Intron A) was obtained from Schering Corp. (Kenilworth, N.J.).
A synthetic 17 amino acid peptide representing the immunosuppressive site of the intramembranous gp41 portion of the human immunodeficiency virus (HIV) was tested on lymphocytes from controls. […] The effect of MIMP from 0.1-100 μg/ml was examined in combination with varying degrees of inhibition by the peptide.
Virus infections are associated with depressed lymphoproliferative responses.

[3] = test system: spleen plaque antibody forming cells (PFC); test: In vivo stimulation of PFC response to SRBC; design: species or system mice
Method: Five days later, suspensions of spleen cells were prepared and their viability was determined by trypan blue exclusion test. Cells were suspended at 3×10^6 /ml. 0.2 ml of spleen cell suspension was mixed with 0.8 ml of 0.7% agarose and 0.2 ml of freshly washed SRBC (at 6×10^5 /ml). The mixture was immediately poured into the plate and allowed to solidify. After 60 minutes of incubation at 37° C. in a humid atmosphere of 5% CO2 in the air, the plate was flooded with 1 ml of guinea-pig complement diluted 1:5 with Hank's balanced saline. Hemolytic plaques were counted with an inverted scope using 4× magnification.
Spleen plaque antibody forming cells (PFC) were measured at the end of the five days.

[4] = test system: spleen lymphocytes; test: In vitro response to mitogens following in vivo oral administration; design: species or system mice; settings: oral Me-IMP for five days, 0-100 mg/kg
Method: In vivo: Compounds were administered orally, by garage, or intraperitoneally. At termination, spleens were obtained as described in Florentin et al. (1982) and cells were prepared for proliferative response with Con A=0.5 μg/ml, PHA=0.5 μg/ml or LPS=0.5 μg/ml.
Spleen lymphocytes were obtained from mice that had been orally administered Me-IMP for five days, range of 0-100 mg/kg body weight, and then sacrificed. The spleen lymphocytes were incubated with PHA (0.5 μg/ml) or Con A (0.5 μg/ml) for 48 hours. Cultures were pulsed with tritiated thymidine for the last 18 hours.

[5] = test system: delayed-type hypersensitivity response; test: Delayed-type hypersensitivity in vivo (footpad swelling, SRBC); design: species or system mice
Method: Mice were immunized by intraperitoneal administration of SRBC in graded doses of from 10^6 to 10^9 cells. […] A dose of 10^7 was chosen to immunize animals in this study.
Four days following immunization, each mouse was challenged by injecting the left hind footpad subcutaneously with 10^8 SRBC in 50 μl phosphate buffered saline (PBS). Vehicle (50 μl PBS) was injected subcutaneously into the right hind footpad as a control. The compounds being tested were injected intraperitoneally either at the time of immunization or at the time of elicitation. After 24 hours of challenge, footpad swelling was measured as the increase in footpad thickness (left minus right) using Engineer's calipers.
The results are expressed as increments of footpad thickness in 0.1 mmunits. The characteristics of delayed-type hypersensitivity measured in this way have been described previously in MacDonald et al. (1979). FIGS. 13 and 14 show the results of this testing.

[6] = test system: Friend Leukemia Virus (FLV); test: Survival of mice infected with Friend Leukemia Virus; type: in vivo, BALB/c mice; settings: 1 mg/kg/day i.p. day 3 to day 13; P<0.004 Wilcoxon
Method: Control mice were treated with saline intraperitoneally from day 3 to day 13 following infection, and Me-IMP treated mice were treated with 1 mg/kg/day from day 3 to day 13, and the day of death was recorded.

[7] = test system: L. monocytogenes EGD; test: Listeria infection mortality; type: in vivo, BALB/c mice; settings: for Mortality: Dead/Total: 1 dose, Day -5, day 4
[8] = test system: Salm. typhimurium strain 415; test: Salmonella infection mortality; type: in vivo, BALB/c mice; settings: the various treatments of MIMP; p<0.01; control about 2.5 days
[9] = test system: influenza virus; type: in vivo, NMRI mice; settings: for % mortality: Table 7, 200 μg, i.n.
[10] = test system: anti-HBs; test: Anti-HBs responses in immunocompromised irradiated DBA/2 mice (EIA); type: in vivo; settings: for anti-HBs, Day 21: p < 0.01
Method: Experimental mice were irradiated at a dose rate of 25 rad/min (1 rad=0.01 Gy) using a ^60 Coγ beam source for four minutes. Data represent the average of ten animals in each group.
Serum specimens from immunized mice were tested for the presence of anti-HBs in an enzyme immunoassay (EIA) using the diagnostic kits of Roche Diagnostica as per the manufacturer's instructions. The anti-HBs EIA kit (Roche), has a sensitivity of <10 IU/1.
Antibody concentration was determined with the help of calibration curves designed on the basis of the results of anti-HBs detection in standard serum panel (Roche Diagnostica) with the concentrations, as follows: 10 IU/l; 50 IU/l; 100 IU/l and 150 IU/l. The results of the two experiments were used for the calculation of mean values.
In a second set of experiments, the effect of MIMP on the induction of a specific immune response to HBsAg in immunocompromised DBA/2 mice subjected to ionizing radiation was analyzed using the same vaccination schemes as set forth for the control DBA/2.

[11] = test system: γ-IFN; test: PHA-induced γ-IFN production; type: cell-based; settings: preliminary data
[12] = scheme 6: Radiation + scheme N2 (HBsAg + MIMP per os)
[13] = scheme 7: Radiation + scheme N3 (HBsAg + MIMP i.p. then per os)

COP(=O)(O)OC[C@H]1O[C@@H](n2cnc3c(=O)[nH]cnc32)[C@H](O)[C@@H]1O [Me-IMP, Methyl-5'-inosine-monophosphate]
PHA response of CD4+ lymphocytes [1]: significantly augmented | effect on gp41 peptide-suppressed PHA proliferation ([2]; inhibition more severe (>50%)): not significant | effect on gp41 peptide-suppressed PHA proliferation ([2]; peptide-induced suppression less than 50%): restored the proliferative responses to near-normal ranges | effect on rIFN-α inhibition of PHA response ([2]; MIMP 1, 10, 100 μg/ml, 10 and 100 units/ml IFN α): reverse the inhibition when it is moderate | effect on PGE2 inhibition of PHA response ([2]; MIMP 1-100 μg/ml, PGE2 10^-5 M): reverse the inhibition | effect on PFC response ([3]; 50 mg/kg of body weight ip with SRBC, PFC five days later): significantly stimulated | dose of optimal stimulation of PFC response ([3]; intraperitoneal): 50 mg/kg of body weight | PFC activity at lower doses ([3]; intraperitoneal, below 50 mg/kg): active at lower doses | peak dose for stimulation of PFC response ([3]; oral, with SRBC antigen and daily for five days): 50 mg/kg of body weight | Con A response of spleen lymphocytes [4]: stimulated | PHA response of spleen lymphocytes [4]: stimulated | delayed-type hypersensitivity response ([5]; one dose i.p. at the time of challenge): not significant | delayed-type hypersensitivity response ([5]; one dose i.p. at the time of immunization): significantly stimulated | mean survival time (MST) [6]: larger mean survival time | MST and survivors ([7]; 0.1 to 10 mg/kg, combined i.p. and p.o. from five days prior to challenge): increased MST and survivors | mean survival time (MST) and absolute number of survivors ([7]; by mouth and at 1 and 10 mg/kg by i.p. injection, five days prior to challenge): increased mean survival time (MST) and the absolute number of survivors | Mortality: Dead/Total ([7]; scheme N1 2: MIMP 1.0 per os): 2/3 | Mortality: Dead/Total ([7]; scheme N1 3: MIMP 10.0 per os): 1/8 | MST [8]: about four | % mortality ([9]; -1 h): 80% | % mortality ([9]; -1 d): 60% | number of survivors and mean survival time (MST) ([9]; mouse, in vivo): increased the number of survivors and mean survival time | survival and MST ([9]; mouse, in vivo): increased survival and MST | anti-HBs, Day 14 [10, 12]: < 10 IU/1 | anti-HBs, Day 21 [10, 12]: 100 IU/1 | anti-HBs, Day 14 [10, 13]: < 10 IU/1 | anti-HBs, Day 21 [10, 13]: 100 IU/1 | effect on PHA-induced γ-IFN [11]: only a small effect
